From patent US7792576B2, “Method of treatment for central nervous system injury” (Purdue Research Foundation, priority 2002, dated 2010)

Columns and labels:
retinal ganglion cells = conditions: administered in vitro to retinal ganglion cells; U.S. Pat. No. 6,440,455 and Benowitz et al. 1999; cited from earlier work
[1] = system: CTM reflex after right lateral hemisection of the spinal cord in adult guinea pig; test: Behavioral recovery of the cutaneous trunci muscle (CTM) reflex after chronic spinal cord injury (Study One); format: in vivo
From the text: Fully adult (approximately 400 grams (g)) female guinea pigs were used in this study (Hartley Strain). They were anesthetized with ketamine/xylyzine by conventional methods (Borgens et al. (2002) J. Exp. Biol. 205, 1-12) prior to surgery, kept warm with heat lamps after surgery, and maintained individually in pens and fed ad libidum for the duration of the investigation. Animals were euthanized at the end of the study, prior to the harvesting of spinal cords for anatomical study by an overdose of the anesthesia (see Borgens et al. (2002) J. Exp. Biol. 205, 1-12).
A laminectomy procedure exposing the dorsal aspect of the spinal cord was performed on all animals between T9 and T11. A right lateral hemisection was performed (FIG. 1) using a special cutting device, and further confirmed to be “complete” (that is, leaving no spared parenchyma) by passing a sharpened pin through the cut tissue. This operation severs the entire right side of the cord from the midline to the far right border of the spinal cord forming a rostral and caudal segment. The entire left side of the spinal cord was left intact. Immediately after transection, a marker device made of surgical stainless steel was inserted into the lesion, as previously described in Borgens et al. (1986) J. Comp. Neurol 250, 168-180 and Borgens and Bohnert (1997) Exp. Neurol. 145, 376-389. […]

[2] = system: ascending and descending axons of transected spinal cord white matter in adult guinea pig; test: Anterograde intracellular labeling of spinal cord white matter axons: axonal projections relative to the plane of transection (Study One); format: in vivo
Procedure: A laminectomy procedure exposing the dorsal aspect of the spinal cord was performed on all animals between T9 and T11. A right lateral hemisection was performed (FIG. 1) using a special cutting device, and further confirmed to be “complete” (that is, leaving no spared parenchyma) by passing a sharpened pin through the cut tissue. This operation severs the entire right side of the cord from the midline to the far right border of the spinal cord forming a rostral and caudal segment. The entire left side of the spinal cord was left intact. Immediately after transection, a marker device made of surgical stainless steel was inserted into the lesion, as previously described in Borgens et al. (1986) J. Comp. Neurol 250, 168-180 and Borgens and Bohnert (1997) Exp. Neurol. 145, 376-389. This device was left in situ for the duration of the study, and removed prior to histological processing. This procedure leaves a hole in the tissue, which accurately marks the exact plane of transaction even in chronic injuries many months old (FIGS. 1 and 2). The injection of various intracellular labels into guinea pig spinal cord white matter has been described in numerous previous publications. See, for example, Borgens et al. (1986) J Comp Neurol 250, 168-180 and Borgens et al. (1999) Journal of Neurotrauma 16, 639-57. Briefly, approximately 18 hours prior to the sacrifice of the animal, the spinal cord was exposed by surgery, and approximately […], of a fluorescently labeled dextran was injected using a Hamiliton syringe. The label (50% in distilled water; 10,000 Daltons) was injected deep into the parenchyma of white matter, approximately two vertebral segments rostral and caudal of the plane of transection (usually still visible, due to the indwelling marker device). A FITC conjugated dextran (“Flouro-emerald”) was injected rostral to the plane of transection, and a rhodamine-conjugated dextran (“Flouro-ruby”) was injected caudal to the plane of transaction. Thus, this anterograde double label technique marked both ascending fibers (mostly sensory afferent fibers) projecting towards the lesion from below it and descending axons (mainly motor fibers) projecting towards the lesion from above it). Longitudinal horizontal sections provided histological samples in which the entire extent of projection of a single axon often can be traced to fall short of, or regenerate to, around, or through the plane of transection. This procedure can sometimes provide dramatic examples of single unit axon degeneration and regeneration. However, it is not productive to attempt to count individual axons in longitudinal horizontal sections. Often axons take tortuous and curving trajectories, and would be counted more than once in individual histological samples. Additionally, sprouting and branching of fibers can lead to false counting relative to the extended growth from the stump of an individual severed fiber. Rather, the proportion of animals in which axons can be traced to terminate more than 250 μms from the plane of transaction (exactly identified by use of the indwelling marker), within 250 μms of the actual plane of transaction, and to cross the exact plane of transection into the adjacent segment of cord is compared. […] Images from an Olympus Van Ox microscope were obtained with an Optronics DEI-750 color video camera and captured to a PC with Adobe Twain 32 software. Table 1, below, provides the numbers of spinal cords that were injected with the intracellular label (N) and those that were lost to histology (LTH) for each of the three groups. The proportions of those cords in which marked fibers were traced to the four zones are given over the number of cords examined. Statistical Comparison between the groups is provided at the bottom of the graph (Fishers' exact two tailed test). […] Table 1 summarizes the results of anterograde filling of both ascending and descending tracts within the spinal cords of all animals in the Study One, of chronically injured animals. […]

## Nc1nc2c(ncn2[C@@H]2O[C@H](CO)[C@@H](O)[C@H]2O)c(=O)[nH]1 [guanosine]
Retinal ganglion cells
  axonal outgrowth: stimulating axonal outgrowth

## OC[C@H]1O[C@@H](n2cnc3c(O)ncnc32)[C@H](O)[C@@H]1O [Inosine, inosine]
Retinal ganglion cells
  axonal outgrowth: stimulating axonal outgrowth
[1]; at the end of the study, chronic SCI, P=0.5 between groups (Mann Whitney)
  percent recovery of the CTM receptive field (mean): 23.5±3.6%
[1]; chronic SCI treated about 3 months after hemisection, inosine 10 mM s.c. osmotic pump 14 days, with or without OFS 4 weeks, 15 inosine, 16 inosine+OFS animals, none of 15 controls recovered
  animals that recovered some amount of CTM behavior: 11 animals
[2]; FITC-labeled descending fibers projecting into the adjacent segment of cord, over number of cords examined
  Descending fibers, Zone 4: proportion of cords: 1/8
[2]; FITC-labeled descending fibers terminating at the plane of transection, over number of cords examined
  Descending fibers, Zone 3: proportion of cords: 2/8
[2]; FITC-labeled descending fibers terminating more than 250 μm from the plane of transection, chronic SCI
  Descending fibers, Zone 1 >250: cords with labeled fibers: 8
[2]; FITC-labeled descending fibers within 250 μm of the plane of transection, over number of cords examined
  Descending fibers, Zone 2 <250: proportion of cords: 7/8
[2]; rhodamine-labeled ascending fibers projecting into the adjacent segment of cord, over number of cords examined
  Ascending fibers, Zone 4: proportion of cords: 2/12
[2]; rhodamine-labeled ascending fibers terminating at the plane of transection, over number of cords examined
  Ascending fibers, Zone 3: proportion of cords: 7/12
[2]; rhodamine-labeled ascending fibers terminating more than 250 μm from the plane of transection, chronic SCI
  Ascending fibers, Zone 1 >250: cords with labeled fibers: 12
[2]; rhodamine-labeled ascending fibers within 250 μm of the plane of transection, over number of cords examined
  Ascending fibers, Zone 2 <250: proportion of cords: 10/12
